Experimental data reported in the supplement of paper PMC10307832.

Columns and labels:
Experiment in all cases: relative viability (nuclei count vs DMSO), 5 days (fraction); higher = more cells survive
CX-5461 + Olaparib = compound: Cc1cnc(CNC(=O)c2c(=O)c3ccc(N4CCCN(C)CC4)nc3n3c2sc2ccccc23)cn1 [CX-5461] + O=C(c1cc(Cc2n[nH]c(=O)c3ccccc23)ccc1F)N1CCN(C(=O)C2CC2)CC1 [Olaparib] (partner 8 µM)
Method in brief: (§1)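 For relative viability, nuclei counts in treated wells were divided by those in vehicle wells. Lung cancer cell lines had been pin-tool dosed in 1536-well plates the day after seeding and cultured for 5 days, then fixed and stained in one step (final 0.05% Triton X-100, 1% formaldehyde, 1 ug/ml Hoechst) and imaged at 4×. Doses were one drug alone or a fixed anchor-drug dose plus five library-drug doses (not always all listed) in √10 steps, and values are duplicate-plate medians.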

CX-5461 + AZD7762 = compound: Cc1cnc(CNC(=O)c2c(=O)c3ccc(N4CCCN(C)CC4)nc3n3c2sc2ccccc23)cn1 [CX-5461] + NC(=O)Nc1cc(-c2cccc(F)c2)sc1C(=O)N[C@H]1CCCNC1 [AZD7762] (partner 0.2 µM)
Method in brief: as §1

IMD-0354 + Foretinib = compound: O=C(Nc1cc(C(F)(F)F)cc(C(F)(F)F)c1)c1cc(Cl)ccc1O [IMD-0354] + COc1cc2c(Oc3ccc(NC(=O)C4(C(=O)Nc5ccc(F)cc5)CC4)cc3F)ccnc2cc1OCCCN1CCOCC1 [Foretinib] (partner 0.25 µM)
Method in brief: as §1

IMD-0354 + Crizotinib = compound: O=C(Nc1cc(C(F)(F)F)cc(C(F)(F)F)c1)c1cc(Cl)ccc1O [IMD-0354] + C[C@@H](Oc1cc(-c2cnn(C3CCNCC3)c2)cnc1N)c1c(Cl)ccc(F)c1Cl [Crizotinib] (partner 1 µM)
Method in brief: as §1

| Cell Line | relative viability (CX-5461 + Olaparib; first compound 0.01 µM) | relative viability (CX-5461 + Olaparib; first compound 0.03162 µM) | relative viability (CX-5461 + Olaparib; first compound 0.1 µM) | relative viability (CX-5461 + Olaparib; first compound 0.3162 µM) | relative viability (CX-5461 + Olaparib; first compound 1 µM) | relative viability (CX-5461 + AZD7762; first compound 0.01 µM) | relative viability (CX-5461 + AZD7762; first compound 0.03162 µM) | relative viability (CX-5461 + AZD7762; first compound 0.1 µM) | relative viability (CX-5461 + AZD7762; first compound 0.3162 µM) | relative viability (CX-5461 + AZD7762; first compound 1 µM) | relative viability (IMD-0354 + Foretinib; first compound 0.04 µM) | relative viability (IMD-0354 + Foretinib; first compound 0.1265 µM) | relative viability (IMD-0354 + Foretinib; first compound 0.4 µM) | relative viability (IMD-0354 + Foretinib; first compound 1.265 µM) | relative viability (IMD-0354 + Foretinib; first compound 4 µM) | relative viability (IMD-0354 + Crizotinib; first compound 0.04 µM) | relative viability (IMD-0354 + Crizotinib; first compound 0.1265 µM) | relative viability (IMD-0354 + Crizotinib; first compound 0.4 µM) | relative viability (IMD-0354 + Crizotinib; first compound 1.265 µM) | relative viability (IMD-0354 + Crizotinib; first compound 4 µM) |
| --- | --- | --- | --- | --- | --- | --- | --- | --- | --- | --- | --- | --- | --- | --- | --- | --- | --- | --- | --- | --- |
| HCC-78 | 0.977 | 0.856 | 0.949 | 0.816 | 0.738 | 0.862 | 0.695 | 0.601 | 0.596 | 0.614 | 0.554 | 0.574 | 0.488 | 0.701 | 0.322 | 0.317 | 0.323 | 0.251 | 0.37 | 0.189 |
| HCC-366 | 0.444 | 0.444 | 0.429 | 0.315 | 0.273 | 0.285 | 0.254 | 0.177 | 0.117 | 0.0411 | 0.837 | 1 | 0.441 | 0.216 | 0.046 | 0.586 | 0.858 | 0.225 | 0.105 | 0.0509 |
| IA-LM | 0.838 | 0.83 | 0.807 | 0.753 | 0.444 | – | – | – | – | – | 1.17 | 1.17 | 0.384 | 0.42 | 0.0844 | 0.948 | 0.974 | 0.51 | 0.0996 | 0.142 |
| NCI-H520 | 0.309 | 0.315 | 0.261 | 0.277 | 0.184 | – | – | – | – | – | 1.04 | 0.842 | 0.458 | 0.469 | 0.2 | 0.959 | 0.672 | 0.44 | 0.459 | 0.239 |
| NCI-H522 | 0.647 | 0.645 | 0.664 | – | 0.664 | 1.09 | 0.98 | 0.713 | – | 0.79 | – | – | – | – | – | – | – | – | – | – |
| NCI-H661 | 0.832 | 0.754 | 0.662 | 0.602 | 0.534 | – | – | – | – | – | 1.06 | 1.01 | 0.681 | 0.295 | 0.24 | 1.07 | 1.2 | 0.869 | 0.524 | 0.317 |
| NCI-H1299 | 0.979 | 0.982 | 0.973 | 1 | 0.891 | – | – | – | – | – | 1.03 | 1.06 | 0.787 | 0.267 | 0.179 | 0.943 | 1 | 0.518 | 0.294 | 0.166 |
| NCI-H1395 | 0.457 | 0.427 | 0.443 | 0.435 | 0.456 | 0.377 | 0.328 | 0.382 | 0.384 | 0.337 | 1.08 | 0.969 | 0.98 | 0.449 | 0.306 | – | – | – | – | – |
| NCI-H1563 | – | – | – | – | – | – | – | – | – | – | 1.06 | 0.936 | 0.837 | 0.388 | 0.44 | 0.904 | 0.774 | 0.822 | 0.484 | 0.44 |
| NCI-H1623 | – | – | – | – | – | – | – | – | – | – | 0.896 | 0.908 | 0.764 | 0.687 | 0.457 | – | – | – | – | – |
| NCI-H1648 | 1.19 | 0.765 | 0.76 | 0.762 | 1.05 | 0.647 | 0.785 | 0.655 | 0.771 | 0.592 | – | – | – | – | – | – | – | – | – | – |
| NCI-H1650 | 0.718 | 0.819 | 0.642 | 0.756 | 0.257 | – | – | – | – | – | 1.32 | 1.1 | 0.581 | 0.207 | 0.245 | 0.921 | 0.793 | 0.578 | 0.19 | 0.205 |
| NCI-H1792 | 0.424 | 0.471 | 0.477 | 0.371 | 0.39 | 0.838 | 0.677 | 0.5 | 0.667 | 0.0872 | – | – | – | – | – | 1.14 | 0.959 | 0.696 | 0.512 | 0.391 |
| NCI-H1793 | 1.09 | 1 | 0.879 | 0.937 | 0.792 | 0.61 | 0.44 | 0.313 | 0.391 | 0.168 | 0.844 | 0.622 | 0.305 | 0.22 | 0.202 | – | – | – | – | – |
| NCI-H2009 | 0.631 | 0.621 | 0.616 | 0.672 | 0.565 | – | – | – | – | – | 1.22 | 1.18 | 0.817 | 0.406 | 0.147 | 1.1 | 0.981 | 0.698 | 0.165 | 0.111 |
| NCI-H2023 | 0.445 | 0.354 | – | 0.248 | 0.0686 | – | – | – | – | – | 0.938 | 0.867 | 0.571 | 0.225 | 0.0843 | 0.671 | 0.618 | 0.432 | 0.172 | 0.0868 |
| NCI-H2228 | 0.75 | 0.773 | 0.518 | 0.55 | 0.188 | – | – | – | – | – | 1.05 | 0.921 | 0.416 | 0.515 | 0.17 | 0.389 | 0.442 | 0.405 | 0.179 | 0.22 |
| NCI-H2342 | 0.488 | 0.398 | 0.44 | 0.391 | 0.447 | 0.444 | 0.486 | 0.484 | 0.522 | 0.469 | 1.08 | 0.98 | 0.794 | 0.735 | 0.453 | – | – | – | – | – |
| SK-LU-1 | 0.423 | 0.467 | 0.442 | 0.473 | 0.335 | – | – | – | – | – | 0.808 | 0.752 | 0.457 | 0.169 | 0.221 | 1.19 | 0.682 | 0.501 | 0.28 | 0.312 |
| SK-MES-1 | 0.706 | 0.738 | 0.508 | 0.641 | 0.246 | – | – | – | – | – | 0.876 | 0.66 | 0.831 | 0.782 | 0.324 | 1.03 | 1.08 | 0.559 | 0.721 | 0.252 |
| SW 900 | 0.785 | 0.872 | – | 0.923 | 1 | 0.657 | 0.627 | – | 0.544 | 0.311 | 0.886 | 0.787 | 0.444 | 0.562 | 0.246 | – | – | – | – | – |
| SW 1573 | 0.395 | 0.468 | 0.29 | 0.438 | 0.141 | – | – | – | – | – | 0.891 | 0.928 | 0.579 | 0.61 | 0.123 | 0.819 | 0.763 | 0.408 | 0.268 | 0.115 |
